According to EP4583874B1, “MULTITARGET NUCLEAR RECEPTOR LIGANDS BASED ON 2-(4-(QUINOLIN-2-YLOXY)PHENOXY)PROPANOIC ACID AND 2-(4-(QUINOXALIN-2-YLOXY)PHENOXY)PROPANOIC ACID FOR THE TREATMENT OF METABOLIC AND LIVER DISEASES” (CHARLES UNIVERSITY, FACULTY OF PHARMACY IN HRADEC KRALOVE, priority 2022, dated 2024):

How the values were obtained:
human FXR = biological target: T1, human FXR (Homo sapiens, UniProt Q96RI1); test: FXR responsive luciferase reporter gene assay (FXRE-luc + human FXR expression construct) in HepG2 cells; assay type: cell-based; conditions: HepG2, 24 h
T1 construct: expressed in transfected cells; host or cells: HepG2
T1 sequence (Q96RI1 1-486): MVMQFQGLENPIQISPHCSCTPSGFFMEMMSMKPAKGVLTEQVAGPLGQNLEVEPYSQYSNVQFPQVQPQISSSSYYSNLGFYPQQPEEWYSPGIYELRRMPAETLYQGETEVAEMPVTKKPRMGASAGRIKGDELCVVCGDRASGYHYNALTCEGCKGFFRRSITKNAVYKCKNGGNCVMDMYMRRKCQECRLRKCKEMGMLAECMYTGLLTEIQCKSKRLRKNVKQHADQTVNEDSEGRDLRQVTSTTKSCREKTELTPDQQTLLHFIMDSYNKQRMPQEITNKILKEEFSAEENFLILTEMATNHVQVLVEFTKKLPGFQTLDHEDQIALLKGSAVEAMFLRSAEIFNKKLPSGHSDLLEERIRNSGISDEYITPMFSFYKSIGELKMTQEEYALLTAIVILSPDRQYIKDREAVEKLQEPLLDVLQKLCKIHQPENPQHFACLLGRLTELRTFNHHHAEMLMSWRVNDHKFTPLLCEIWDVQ
Description: In HepG2 cells, luciferase gene reporter assays have been performed with the transiently transfected reporter gene luciferase construct with the UAS yeast binding site interacting with GAL4 protein (pGL5-UAS 9x, Promega). DNA constructs encoding human LBD domains of human PPARα, PPARγ, of LXRα (pGAL4-PPARα, pGAL4-PPARγ, pGAL4-LXRα) have been cotransfected with the reporter construct. For FXR, FXRE-luc construct with FXR response elements upstream of Firefly luciferase has been used together with an expression construct for human FXR for HepG2 cells transfection. HepG2 cells were then treated with compounds of the invention for 24 h.

[1] = system: C57BL/6J mice fed with high fat diet; test: Proof-of-concept study in mice fed with high fat diet: plasma biochemistry, weights, IPGTT; assay type: in vivo; conditions: HFD mice; for glucose plasma levels in Intraperitoneal Glucose Tolerance Test (IPGTT): IPGTT 1.5 g/kg BW
Description: Control group received a chow diet.
In the proof-of-concept study, after a 1-week of adaptation period, male C57BL/6J mice were randomly divided into three groups: (i) mice fed a chow diet (control; PicoLab RD 20, LabDiet) and tap water (n=4) or (ii) mice fed a high-fat diet (HFD) consisting of Western diet (AIN-76A WD, TestDiet, 20 % fat) and glucose (18.1 g/L) with fructose (24 g/L) provided in water. At week 21 on HFD diet, mice were randomly assigned into two experimental groups (10 and 11 mice per group): (ii) group on HFD, (iii) group on HFD administered with 10 mg/kg compound of EXAMPLE 37 as a salt (hydrochloride) (HFD +comp. 37). Compound of EXAMPLE 37or vehicle (1% methylcellulose) were administered once daily by oral gavage for another 3 weeks together with diets.
The i.p. Glucose tolerance test has been performed seven days before the termination of the study. For the purpose, […] of glucose dissolved in saline has been applied and blood was sampled in four intervals up to 120 minutes form tail vein. A standard glucometer was used to measure glycemia.
For biochemistry analyses, plasma liver enzyme activities were analyzed in plasma by a commercial Preventive Care Profile Plus test with Vetscan 2 device (Abaxis). Level of cholesterol and triglycerides in plasma and liver were measured by commercial kits (Erba Lachema s.r.o., Brno, Czech Republic).
Animals were sacrificed by anesthesia overdose. Plasma samples were obtained from the whole blood by centrifugation at 2,000 × g for 5 min at 4°C. The liver, gallbladder and abdominal fat were excised, weighted and immediately frozen in liquid nitrogen. All samples were stored at -80°C until analysis.

human PPARγ = biological target: T2, human PPARγ (Homo sapiens, UniProt P37231); test: PPARγ luciferase reporter gene assay (pGAL4-PPARγ / pGL5-UAS 9x) in HepG2 cells; assay type: cell-based; conditions: HepG2, 24 h
T2 construct: DNA constructs encoding human LBD domains of human PPARα, PPARγ, of LXRα (pGAL4-PPARα, pGAL4-PPARγ, pGAL4-LXRα); expressed in transfected cells; host or cells: HepG2
T2 sequence (P37231 238-503 limits assumed): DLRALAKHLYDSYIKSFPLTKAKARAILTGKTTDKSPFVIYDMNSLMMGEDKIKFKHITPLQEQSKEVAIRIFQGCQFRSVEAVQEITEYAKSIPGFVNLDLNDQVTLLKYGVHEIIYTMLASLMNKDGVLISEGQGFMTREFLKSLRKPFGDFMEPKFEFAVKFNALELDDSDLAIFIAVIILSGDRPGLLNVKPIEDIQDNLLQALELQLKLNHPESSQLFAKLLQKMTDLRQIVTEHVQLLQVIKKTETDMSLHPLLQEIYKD

[2] = system: C57BL/6J mice fed with high-fat diet; test: Proof-of-concept study in mice fed with high-fat diet, liver mRNA expression by RT-qPCR; assay type: in vivo; conditions: 10 mg/kg p.o. daily for three weeks, HFD mice
Protocol: The compound 37 has been applied daily (10 mg/kg) via p.o. gavage for three weeks to wild-type C57BL/6J mice fed with high-fat diet (HFD) for 24 weeks. After 24 h from the last application, mice were sacrificed, and live samples collected on dry ice for total RNA isolation. RT-qPCR experiments have been performed with TaqMan probes and expression has been quantified using a reference gene (Gapdh) and delta-delta method. Data represents fold up or downregulation in mRNA expression for tested genes related to the expression in vehicle-treated control animals. * - denotes statistically significant (p<0.05) up-regulation in animals treated with the compound of EXAMPLE 37 in comparison to animals fed with HFD only (n ≥ 10 in each groups). ^f - statistically significant effect of HFD diet on a gene expression. […]
Expressions of NR target genes mRNAs in livers of mice or in 3D cultured (spheroids) primary human hepatocytes have been performed using TaqMan probes-based RT-qPCR after isolation of total RNA by Trizol® (ThermoFischer Scientific) reagent and reverse transcription synthesis of cDNA in Quant Studio cycler. […] Delta-delta method and Gapdh or TATA-box binding protein (TBP) housekeeping genes were used for relative quantification. Data are expressed as fold up-/down-regulation compared to vehicle-treated samples/mice.

[3] = 10 mg/kg p.o. daily for 3 weeks (hydrochloride), vs HFD group

How did the Emax at 10 µM (human FXR) turn out when `C[C@@H](Oc1ccc(Oc2ccc3c(Cl)cccc3n2)cc1)C(=O)O` [compound 37, (R)-2-(4-((5-Chloroquinolin-2-yl)oxy)phenoxy)propanoic acid] was run?
Its Emax at 10 µM is 77%.

What about the ALP plasma levels [1, 3] of the same compound?
The ALP plasma levels was “increases”.

And the ALT plasma levels [1, 3]?
Its ALT plasma levels is “improves”.

And the AST plasma levels [1, 3]?
Its AST plasma levels is “improves”.

And the “plasma triglyceride (TG) levels” value [1, 3]?
The value was “significantly decreases”.

What about the “abdominal fat weight (AFW)” value ([1]; 10 mg/kg p.o. daily for 3 weeks, effect not statistically significant) of the same compound?
Its value is “decreased”.

And the “body weight (BW)” value ([1]; 10 mg/kg p.o. daily, after three weeks of treatment)?
The value was “significantly decreased”.

What about the “glucose plasma levels in Intraperitoneal Glucose Tolerance Test (IPGTT)” value ([1]; after 15 minutes, 10 mg/kg p.o. daily) of the same compound?
Its value is “significantly decreased”.

What about the “glucose plasma levels in Intraperitoneal Glucose Tolerance Test (IPGTT)” value ([1]; other intervals, 10 mg/kg p.o. daily) of the same compound?
The value was “the decrease was not statistically significant”.

And the Emax at 10 µM (human PPARγ)?
Its Emax at 10 µM is 1%.

And the “key genes of gluconeogenesis” value [2]?
The value was “down-regulated”.

And the “key genes involved in fatty acid (beta) oxidation (Ucp2, Hadha and Hadha) in mouse livers” value ([2]; vs HFD only)?
Its value is “up-regulates”.
